Five molecules from PubChem BioAssay AID2060492 (Molecular Pharmacology Branch, DTP, NCI, 2025) can be followed below.

As usually defined, the IC50 is the concentration at which inhibition is half-maximal. Usually viability, T/C stands for the result in the treated group divided by that in the control group, in per cent.

The assay relates to 695427-040-R-J1-PDC complex spheroids, viability percent T/C. The assay can be described thus: Anticancer human tumor 695427-040-R-J1-PDC patient-derived colon adenocarcinoma cell line growth inhibition [GQUAD]. The settings on record: for viability, T/C: stronger effect = lower value. An excerpt: DNA G-quadruplex Stabilizer Agents in Combinations in Complex Spheroids
A high-throughput screen of multi-cell type tumor spheroids was designed to identify active combinations of DNA G-quadruplex stabilizer agents and targeted small molecules. Complex spheroids include a stromal component modeled by human endothelial cells (HUVEC) and fibroblasts modeled by human mesenchymal stem cells (MSCs). The concentration ranges selected for each drug and investigational agent were based upon clinically achievable concentrations if the clinical Cmax of the agent was known.
Compounds. The drugs and investigational agents: pidnarulex (CX-5461; NSC782164), APTO-253 (NSC789042), BRACO-19 (NSC847499), peposertib (NSC802822), ceralasertib (NSC780249), elimusertib (NSC800525), camonsertib (NSC841442), AZD-1390 (NSC803789), olaparib (NSC753686), talazoparib (NSC767125), ART-558 (NSC835418), sotorasib (NSC818433), MRTX-1133 (NSC836407), SN-38 (NSC673596), topotecan (NSC609699), etoposide (NSC141540), doxorubicin (NSC123127), gemcitabine (NSC613327), 5-fluorouracil (NSC19893), paclitaxel (NSC125973), vemurafenib (NSC761431), panobinostat (NSC761190), R-306465 (JNJ-16241199; NSC773264), adavosertib (NSC754352), TP-3654 (NSC805149), carboplatin (NSC241240), KSQ-4279 (NSC840948), and staurosporine (NSC755774) were obtained from the National Cancer Institute (NCI) Developmental Therapeutics Program Chemical Repository (34). The FDA-approved anticancer drug set is available from the NCI Developmental Therapeutics Program. […] The stock solutions were prepared in dimethyl sulfoxide (DMSO, Sigma-Aldrich, St. Louis, MO, cat. D2650) at 800-fold the tested concentration and stored at -70 degrees C prior to their use. All drugs and investigational agents were tested over a range starting from a high concentration at or near the clinical Cmax and decreasing in half-log increments. If the clinical Cmax for an agent had not been determined, the highest concentration tested was 10 microM.
2.3 Cell Culture. All cells were maintained in an incubator at 37 degrees C and 5% CO2 with 95% humidity. The PDC lines were cultured according to standard operating procedures established by the NCI PDMR. All PDCs were thawed and cultured in Matrigel-coated flasks prepared with a working solution of 1X Ham's F-12 nutrient mix, without supplementation (Invitrogen, cat. 11765054), 100 U/mL penicillin-streptomycin (Invitrogen, cat. 15140122), and 2.5% Matrigel (Corning Inc., cat. 354248) for the first three passages. The 857933-349-R-J2-PDC line was cultured in 6C/Colon 1B media, which includes advanced DMEM/F-12 (Thermo Fisher Scientific, cat. 12634028), 10 mM HEPES (Thermo Fisher Scientific, cat. 15630080), 1X GlutaMAX supplement (Thermo Fisher Scientific, cat. 35050061), 0.1 mg/mL primocin (InvivoGen, cat. ant-pm-2), 10% defined fetal bovine serum, heat inactivated (HyClone Laboratories Inc., cat. SH30070.03HI), 50% L-WRN conditioned media (ATCC, cat. CRL-3276), 1.25 mM N-Acetyl-L-cysteine (Sigma-Aldrich, cat. A9165), 10 mM nicotinamide (Sigma-Aldrich, cat. N0636), 1X B-27 supplement (Thermo Fisher Scientific, cat. 17504044), 1X N-2 supplement (Thermo Fisher Scientific, cat. 17502048), 10 microM Y-27632 dihydrochloride (Tocris Bioscience, cat. 1254), and 50 ng/mL human EGF recombinant protein (Thermo Fisher Scientific, cat. PHG0311). The 485176-168-R4-J1-PDC line was cultured in Panc media, which includes all 6C/Colon 1B media components plus 100 ng/mL human FGF-10 (Thermo Fisher Scientific, cat. 100-26), 500 nM SB-431542 (Selleckchem, cat. S1067), and gastrin (Tocris, cat. 3006).
[…]

“And” between values parts separate entries of the source, which are not always exact repeats. Identical values can stand only once. Some results are limits rather than exact numbers.
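Further: spheroids exposed to compounds for seven days before readout.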

Turning to `Cn1ncnc1[C@H]1c2n[nH]c(=O)c3cc(F)cc(c23)N[C@@H]1c1ccc(F)cc1` + CN(C)c1ccc(Nc2c3ccc(NC(=O)CCN4CCCC4)cc3nc3cc(NC(=O)CCN4CCCC4)ccc23)cc1, the concentration for half-maximal inhibition (IC50) was above 316 nM (curve of first compound, second compound 0.0316 µM); above 316 nM (curve of first compound, second compound 0.1 µM); above 316 nM (curve of first compound, second compound 0.316 µM); above 316 nM (curve of first compound, second compound 1 µM); above 316 nM (curve of first compound, second compound 3.16 µM); above 316 nM (curve of first compound, second compound 10 µM). Besides, the viability, T/C was 102% (second compound 0.0316 µM, first compound 0.000999 µM); 92.9% (second compound 0.0316 µM, first compound 0.00316 µM); 101% (second compound 0.0316 µM, first compound 0.00999 µM); 103% (second compound 0.0316 µM, first compound 0.0316 µM); 100% (second compound 0.0316 µM, first compound 0.0999 µM); 93% (second compound 0.0316 µM, first compound 0.316 µM). Besides, the viability, T/C is, setting by setting: (second compound 0.1 µM, first compound 0.000999 µM) 112%; (second compound 0.1 µM, first compound 0.00316 µM) 89.1%; (second compound 0.1 µM, first compound 0.00999 µM) 95.7%; (second compound 0.1 µM, first compound 0.0316 µM) 92.8%; (second compound 0.1 µM, first compound 0.0999 µM) 93.5%; (second compound 0.1 µM, first compound 0.316 µM) 97.5%. Further, the viability, T/C (second compound 0.316 µM, first compound 0.000999 µM) was 88.2%; the viability, T/C (second compound 0.316 µM, first compound 0.00316 µM) is 95.8%; the viability, T/C (second compound 0.316 µM, first compound 0.00999 µM) was 99.5%; the viability, T/C (second compound 0.316 µM, first compound 0.0316 µM) is 96.6%; the viability, T/C (second compound 0.316 µM, first compound 0.0999 µM) was 90.9%; the viability, T/C (second compound 0.316 µM, first compound 0.316 µM) was 91.2%. Further, the viability, T/C was 105% (second compound 1 µM, first compound 0.000999 µM); 97.8% (second compound 1 µM, first compound 0.00316 µM); 91.5% (second compound 1 µM, first compound 0.00999 µM); 104% (second compound 1 µM, first compound 0.0316 µM); 101% (second compound 1 µM, first compound 0.0999 µM); 87.3% (second compound 1 µM, first compound 0.316 µM). The viability, T/C by setting is: (second compound 3.16 µM, first compound 0.000999 µM) 99.6%; (second compound 3.16 µM, first compound 0.00316 µM) 94.7%; (second compound 3.16 µM, first compound 0.00999 µM) 88.8%; (second compound 3.16 µM, first compound 0.0316 µM) 94.2%; (second compound 3.16 µM, first compound 0.0999 µM) 95%; (second compound 3.16 µM, first compound 0.316 µM) 93.4%. Besides, the viability, T/C reads like this: (second compound 10 µM, first compound 0.000999 µM) 93.3%; (second compound 10 µM, first compound 0.00316 µM) 89.8%; (second compound 10 µM, first compound 0.00999 µM) 77.3%; (second compound 10 µM, first compound 0.0316 µM) 86.2%; (second compound 10 µM, first compound 0.0999 µM) 96.4%; (second compound 10 µM, first compound 0.316 µM) 90.1%.

As for `CC(=O)O[C@H]1C(=O)[C@@]2(C)[C@H]([C@H](OC(=O)c3ccccc3)[C@]3(O)C[C@H](OC(=O)[C@H](O)[C@@H](NC(=O)c4ccccc4)c4ccccc4)C(C)=C1C3(C)C)[C@]1(OC(C)=O)CO[C@@H]1C[C@@H]2O`, the viability, T/C (compound 0.0316 µM) is 92.5% and 97.5% and 84.8%; the viability, T/C (compound 0.1 µM) was 90.5% and 92.7% and 88.8%; the viability, T/C (compound 0.316 µM) was 72.9% and 89.3% and 82.4%.

On to `COc1ncnc(C2CC2)c1-c1ncc2cnn(Cc3ccc(-c4nc(C(F)(F)F)cn4C(C)C)cc3)c2n1`, for which the viability, T/C is 86.9% and 97.4% and 103% (compound 0.0316 µM); 92.5% and 96.3% and 95.5% (compound 0.1 µM); 93.3% and 102% and 94.6% (compound 0.316 µM); 81.1% and 99.2% and 93% (compound 1 µM); 71.3% and 107% and 93.5% (compound 3.16 µM); 82% and 78% and 98% (compound 10 µM). Moreover, the IC50 (curve of compound) is above 10000 nM.

`CC[C@@]1(O)C(=O)OCc2c1cc1n(c2=O)Cc2cc3c(CN(C)C)c(O)ccc3nc2-1`: the viability, T/C is 93.2% and 113% and 101% (compound 0.000999 µM); 97.2% and 103% and 94.8% (compound 0.00316 µM); 109% and 96.7% and 103% (compound 0.00999 µM); 93.2% and 102% and 89.2% (compound 0.0316 µM); 81.3% and 103% and 88.3% (compound 0.0999 µM); 82.7% and 90.3% and 80.3% (compound 0.316 µM). Besides, the half-maximal inhibitory concentration (IC50) (curve of compound) is above 316 nM.

On to `CN(C)c1ccc(Nc2c3ccc(NC(=O)CCN4CCCC4)cc3nc3cc(NC(=O)CCN4CCCC4)ccc23)cc1`, for which the viability, T/C is 104% [middle of 12 runs] (compound 0.0316 µM); 102% [middle of 12 runs] (compound 0.1 µM); 104% [middle of 12 runs] (compound 0.316 µM); 99.1% [middle of 12 runs] (compound 1 µM); 103% [middle of 12 runs] (compound 3.16 µM); 92.2% [middle of 12 runs] (compound 10 µM). For the setting “compound alone, run of 04/22/2024”, the IC50 was above 10000 nM.
